Reference: US9809750B2, “Liquid crystal composition” (Nanoegg Research Laboratories, Inc., priority 2009, dated 2017)

Method: Then, SH556 (phenyl-modified silicone oil) was added to this liquid crystal composition to prepare the liquid crystal composition of the present invention.
(§1) The solubilized concentration (saturated concentration of solubilization) of oil was measured by sample appearance, for example, cloudiness or phase separation.
Then, a mixed oil of SH556 and squalane or a mixed oil of KF50-100CS and squalane was added to the mixed surfactant aqueous solution, thereby preparing the liquid crystal compositions of the present invention. The weight ratio of a phenyl-modified silicone oil (SH556 or KF50-100CS) and squalane is 1:1 in each mixed oil. Moreover, as a comparative example, squalane alone was added to the mixed surfactant aqueous solution to prepare a liquid crystal composition for the comparative example.
The solubilized concentration of oil (mixed oil or squalane) in each liquid crystal composition was evaluated. The solubilized concentration (saturated concentration of solubilization) of oil was measured by sample appearance, for example, cloudiness or phase separation.
Then, a mixed oil of SH556 and squalane was added to each mixed surfactant aqueous solution, thereby preparing the liquid crystal compositions of the present invention. The weight ratio of SH556 and squalane is 1:1 in the mixed oil. Moreover, as comparative examples, squalane alone was added to the mixed surfactant aqueous solutions to prepare liquid crystal compositions for the comparative examples.
(§2) The solubilized concentration of oil (a mixed oil of SH556 and squalane or squalane) in each liquid crystal composition was evaluated. The solubilized concentration (saturated concentration of solubilization) of oil was measured by sample appearance, for example, cloudiness or phase separation.
Then, a mixed oil of SH556 and α-lipoic acid or a mixed oil of SH556 and oleic acid was added to the mixed surfactant aqueous solution, thereby preparing the liquid crystal compositions of the present invention. The weight ratio of SH556 and a fatty acid (α-lipoic acid or oleic acid) is 1:1 in each mixed oil.
as §2, with “α-lipoic acid, a mixed oil of SH556 and oleic acid, α-lipoic acid” for “squalane”, “oleic acid)” for “squalane)”
as §1

Molecule: CC(C)CCCC(C)CCCC(C)CCCCC(C)CCCC(C)CCCC(C)C (stereo not drawn) [squalane]
- solubilized concentration of oil: could not be dissolved
- solubilized concentration of squalane: up to 3.125 % by weight

Molecule: CCCCCCCC/C=C\CCCCCCCC(=O)O [oleic acid]
- solubilized concentration of oleic acid: up to 11.7 % by weight

Molecule: phenyl trimethicone [SH556]
- effect of enhancing solubility of squalane: showed the effect of enhancing solubility of squalane
- solubilized concentration of oil: at least 25 % by weight

Molecule: CCCCCCCCCCCCCCCCOC(=O)CCCCC(C)C [cetyl isooctanoate]
- solubilized concentration of cetyl isooctanoate: up to 12.96 % by weight
